Assay results: article PMC10223552 (Pharmaceuticals, 2023)

How the values were obtained:
[1] = tested on: MDA-MB-231 breast cancer cells; assay: Apoptosis/necrosis detection (Annexin V-FITC/PI, image cytometry), MDA-MB-231; type: cell-based, human; conditions: 48 h
Experimental: The MTT test results prompted further study. Staining with propidium iodide and Annexin V-FITC was performed to distinguish apoptotic from necrotic cell death.
Apoptosis was analyzed using the NucleoCounter® NC-3000™ (Chemometec Inc., Lillerød, Denmark) according to the manufacturer’s protocol using Annexin V from Biotium (Fremont, CA, USA). MCF-7 and MDA-MB-231 cells were seeded into 6-well plates (2 × 10^5 cells/mL) and cultured until 70–80% confluence was reached. […] Scatter plots were used to determine the proportion of healthy cells (Annexin V-negative/PI-negative cells), early apoptotic cells (Annexin V-positive/PI-negative cells), late apoptotic cells (Annexin V-positive/PI-positive cells), and necrotic cells (Annexin V-negative/PI-positive cells). Data were derived from three independent experiments with three replicates.

[2] = tested on: BJ normal skin fibroblast; assay: MTT cytotoxicity test, BJ normal fibroblasts; type: cell-based; conditions: Homo sapiens, 48 h treatment
Experimental: The studies were conducted on two breast cancer cell lines—MCF-7 (ER+PR+/HER2-negative) and MDA-MB-231 (ER/PR/HER2-negative) and human normal fibroblast cell line BJ. The cell lines were obtained from American Type Culture Collection (ATCC, Manassas, VA, USA) and were cultured at 37 °C in the presence of 5% CO2 in the atmosphere. The culture media (Eagle’s Minimum Essential Medium for MCF-7 and BJ, Leibovitz’s L-15 Medium for MDA-MB-231, Corning, NY, USA), was supplemented with 10% fetal bovine serum. The cell’s morphology was examined under a Nikon Eclipse Ti inverted phase contrast microscope (Nikon, Tokyo, Japan). The authenticity of tested cell lines was verified by short tandem repeat (STR) genotyping in the Department of Forensic Medicine (Medical University of Lublin, Lublin, Poland).
Cell viability based on metabolic activity was evaluated with the MTT colorimetric test based on the ability of viable cells to cause the transformation of tetrazolium salts MTT (3-[4,5-dimethylthiazol-2-yl]-2,5)diphenyltetrazolium bromide) into purple formazan, by cellular dehydrogenases. The cells were seeded into 96-well plates at a concentration of 2 × 10^5 cells/mL. Once 70–80% confluency was reached, tested compounds were added: ADS10310 and ADS1017 in concentrations ranging from 1 to 250 µM or DMSO as the vehicle in control cultures for the next 48 h (max. DMSO concentration <0.5%). Doxorubicin was used for comparison as the standard chemotherapeutic agent used in breast cancer treatment. After 48 h of incubation cell cultures were supplemented with 20 µL of 5 mg/mL MTT (Thermofisher, Waltham, MA, USA) stock in PBS (Corning, NY, USA), and the incubation was continued for 4 h at 37 °C. […] The solution absorbency was measured at 570 nm, using a PowerWave™ xs microplate spectrophotometer (BioTek Instruments, Winooski, VT, USA). […] IC50 values were determined using the AAT Bioquest IC50 calculator (AAT Bioquest, Inc. Quest Graph™ EC50 Calculator. https://www.aatbio.com/tools/ec50-calculator) (accessed on 6 September 2022).

eeAChE = biological target: T1, eeAChE (Electrophorus electricus, UniProt O42275); assay: biochemical; set-up: species or system electric eel; conditions: 10 µM; read-out: eeAChE % inh. (10 µM) ± SD
T1 construct: purchased Sigma–Aldrich (Steinheim, Germany)
T1 sequence (O42275 24-633): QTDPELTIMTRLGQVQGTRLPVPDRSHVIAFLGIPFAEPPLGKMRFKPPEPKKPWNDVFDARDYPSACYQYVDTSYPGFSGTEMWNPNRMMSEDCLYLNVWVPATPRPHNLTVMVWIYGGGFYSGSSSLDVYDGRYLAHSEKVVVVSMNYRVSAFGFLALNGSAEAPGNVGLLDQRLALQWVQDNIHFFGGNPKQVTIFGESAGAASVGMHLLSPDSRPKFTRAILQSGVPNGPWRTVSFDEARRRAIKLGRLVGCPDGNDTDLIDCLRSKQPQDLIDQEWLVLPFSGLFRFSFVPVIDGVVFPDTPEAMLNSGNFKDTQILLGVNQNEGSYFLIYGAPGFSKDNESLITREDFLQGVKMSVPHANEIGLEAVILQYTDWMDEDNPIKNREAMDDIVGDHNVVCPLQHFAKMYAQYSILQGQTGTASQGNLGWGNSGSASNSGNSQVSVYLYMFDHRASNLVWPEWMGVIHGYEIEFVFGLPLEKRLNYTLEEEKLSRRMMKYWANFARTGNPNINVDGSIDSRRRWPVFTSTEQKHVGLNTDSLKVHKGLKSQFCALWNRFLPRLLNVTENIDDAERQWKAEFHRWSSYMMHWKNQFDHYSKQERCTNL

eqBuChE = eqBuChE (Equus caballus, UniProt P81908); assay: biochemical; conditions: for inhibition at 10 µM: read-out: eqBuChE % inh. (10 µM) ± SD; for IC50: read-out: eqBuChE IC50 ± sem
Chain of eqBuChE (P81908 whole entry): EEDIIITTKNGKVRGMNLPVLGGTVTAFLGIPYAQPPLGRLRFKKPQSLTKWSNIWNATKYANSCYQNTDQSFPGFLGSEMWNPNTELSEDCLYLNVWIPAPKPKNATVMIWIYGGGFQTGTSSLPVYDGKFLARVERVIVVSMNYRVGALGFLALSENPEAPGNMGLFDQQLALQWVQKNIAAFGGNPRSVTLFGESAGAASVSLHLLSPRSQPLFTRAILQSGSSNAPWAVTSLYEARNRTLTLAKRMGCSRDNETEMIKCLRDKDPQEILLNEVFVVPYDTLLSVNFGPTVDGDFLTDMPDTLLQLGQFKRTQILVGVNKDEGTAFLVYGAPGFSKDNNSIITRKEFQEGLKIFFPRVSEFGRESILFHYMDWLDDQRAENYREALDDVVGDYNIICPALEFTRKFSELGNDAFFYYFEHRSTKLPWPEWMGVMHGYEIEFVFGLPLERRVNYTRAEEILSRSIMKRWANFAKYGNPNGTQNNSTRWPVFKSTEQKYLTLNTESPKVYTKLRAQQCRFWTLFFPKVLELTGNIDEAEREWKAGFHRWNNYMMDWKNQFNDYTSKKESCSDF

hepatoma HepG2 cell line = assay: Hepatotoxicity assay (MTS), HepG2; type: cell-based
Experimental: The cells were grown in Minimum Essential Media (MEM) supplemented with 10% fetal bovine serum (FBS) in a humidified atmosphere of 5% CO2 to reach 70–80% confluency. The cells were seeded next into 96-well plates at a concentration of 0.7 × 10^4 cells/well. […] The 1% DMSO in culture media was used as the vehicle control.

gpH1R = biological target: T2, gpH1R (Cavia porcellus, UniProt P31389); assay: Ex vivo assay for histamine H1R antagonists on guinea pig ileum stimulated by histamine (+atropine); conditions: gpH1R +Atropine pA2 ± sem, isolated guinea pig ileum, vs histamine, 0.05 µM atropine
T2 construct: from tissue; host or cells: isolated distal ileum of male guinea pigs
T2 sequence (P31389 whole entry): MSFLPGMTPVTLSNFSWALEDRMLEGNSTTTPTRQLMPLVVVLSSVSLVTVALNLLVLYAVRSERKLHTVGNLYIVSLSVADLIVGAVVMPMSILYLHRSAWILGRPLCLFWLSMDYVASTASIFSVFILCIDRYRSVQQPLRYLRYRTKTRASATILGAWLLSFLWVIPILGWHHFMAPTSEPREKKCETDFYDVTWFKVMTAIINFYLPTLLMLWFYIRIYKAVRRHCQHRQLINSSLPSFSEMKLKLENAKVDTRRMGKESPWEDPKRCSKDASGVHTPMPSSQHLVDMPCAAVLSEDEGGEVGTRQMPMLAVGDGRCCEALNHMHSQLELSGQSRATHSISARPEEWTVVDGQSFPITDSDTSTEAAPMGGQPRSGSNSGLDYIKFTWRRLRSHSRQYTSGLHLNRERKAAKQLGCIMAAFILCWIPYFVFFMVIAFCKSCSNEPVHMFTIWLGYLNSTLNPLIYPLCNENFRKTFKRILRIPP
Experimental: A second histamine receptor located in the guinea pig ileum is H1R. The antagonistic effect at H1R was measured on the isolated guinea pig ileum stimulated to contractions by histamine. To eliminate the impact of muscarinic receptors located on the tested tissue, 0.05 µM of atropine was added to the Krebs buffer.
Ex vivo assay for histamine H3R and H1R antagonists were measured on the isolated guinea pig ileum stimulated to contractions by histamine. The pA2-values were calculated according to Arunlakshana and Schild. The radioligand-displacement binding assay was performed in membrane fractions of HEK-293 cells stably expressing hH3R. Cell cultivation and membrane preparation was performed according to Kottke et al.. The Ki values were calculated from the IC50 values using the Cheng–Prusoff equation [37]. The statistical calculations were performed on –log(Ki). […] The inhibitory activities of novel ADS compounds were assessed in spectrophotometric Ellman’s assay using AChE from electric eel (eeAChE) and BuChE from horse serum (eqBuChE).
3.2 Ex vivo assay for histamine H1R receptor antagonists on guinea pig ileum.
Male guinea pigs, weighing 300-400 g were euthanized by a blow to the neck. A 20-30 cm length of the distal ileum, apart from the terminal 5 cm was rapidly removed and placed in phosphate buffer at room temperature (pH […]
Aldrich, St. Louis, MO, USA) (1·10-6 mol/L). The intraluminal content was rinsed and the isolated intestine was cut into 1.5-2 cm segments. The preparations were mounted isotonically in a 20 mL organ bath filled with Krebs […]
a constant load of 0.5 g (Hugo Sachs Hebel-Messvorsatz (Tl-2)/HF-modem; Hugo Sachs Elektronik, Hugstetten, Germany) connected to a pen recorder (Kipp & Zonen BD41, Delft, Holland). During an equilibration period of 40 min, the Krebs buffer was changed every 10 min. The first cumulative concentration-response curve was determined to histamine (Sigma-Aldrich, St. Louis, MO, USA) (10 nM - 10 mM) at increasing concentration spaced by three or 3.3-fold. The second to the fourth (or fifth) curve was measured in the presence of an increasing concentration of antagonist (incubation time 10 min). The pA2-values were calculated according to Arunlakshana and Schild. [Br J Pharmacol Chemother. […] Statistical analysis was carried out with the Students’ t-test. In all tests, a p<0.05 was considered statistically significant. The pA2 values were compared with the affinity

N=C(N)N(CCCCN1CCN(CCCCCCCOc2ccccc2)CC1)Cc1ccccc1 [ADS1017]
early apoptotic cells (Q1lr) ([1]; MDA-MB-231, IC50 concentration): 22% | late apoptotic cells (Q1ur) ([1]; MDA-MB-231, IC50 concentration): 39% | IC50 [2]: 39 µM | inhibition at 10 µM (eeAChE): 49.7 ± 0.7% | inhibition at 10 µM (eqBuChE): 70.8 ± 0.6% | IC50 (eqBuChE): 5.1 ± 0.1 µM

Cl.Cl.N=C(NCCCCc1ccc(Cl)cc1)NCCCCN1CCCCC1 [ADS10310]
mode of cell death (in words) ([1]; both breast cancer lines, IC50 concentration): mainly late apoptotic cells | IC50 [2]: 231 µM | decrease of hepatoma HepG2 cell viability (hepatoma HepG2 cell line; 100 µM, 72 h): ~ 40% | HepG2 cell viability at concentrations up to 50 µM (hepatoma HepG2 cell line; 72 h): no decrease | hepatotoxic activity (in words) (hepatoma HepG2 cell line; HepG2, 72 h, 0.01-100 µM): weak hepatotoxic activity | inhibition at 10 µM (eeAChE): 7.3 ± 0.9% | Kb (gpH1R): 0.339 µM | inhibition at 10 µM (eqBuChE): 83.9 ± 0.1% | IC50 (eqBuChE): 1.7 ± 0.1 µM
